# Results published in ChEMBL document CHEMBL4130487, “A pentanoic acid derivative targeting matrix metalloproteinase-2 (MMP-2) induces apoptosis in a chronic myeloid leukemia cell line” (Eur J Med Chem, 2017).
# How the values were obtained:
# K562 [1] = assay: Induction of apoptosis in human K562 cells assessed as late apoptotic cells at 2.5 uM after 48 hrs by Annexin V-FITC/propidium iodide staining based flow cytometry (reference value: 0.3%); assay type: functional
# K562 [2] = assay: Downregulation of MMP2 protein expression in human K562 cells assessed as MMP2 positive population at 5 uM after 48 hrs by FITC staining based flow cytometry (reference value: 98.4%)
# K562 [3] = assay: Induction of apoptosis in human K562 cells assessed as late apoptotic cells at 10 uM after 48 hrs by Annexin V-FITC/propidium iodide staining based flow cytometry (reference value: 0.3%); assay type: functional
# K562 [4] = assay: Induction of apoptosis in human K562 cells assessed as necrotic cells at 5 uM after 48 hrs by Annexin V-FITC/propidium iodide staining based flow cytometry (reference value: 0%); assay type: functional
smiles,measurement,setting,value
CCCCCNC(=O)CC[C@H](NS(=O)(=O)c1ccc([N+](=O)[O-])cc1)C(=O)O,Activity,K562 [1],11.6%
same,Activity,K562 [2],18.9%
same,Activity,K562 [3],10.3%
same,Activity,K562 [4],0.1%
